According to BindingDB's records for doi:10.1021/jm030438k (Harvard Medical School, 2004):
pIC50: −log10 of the molar value.

How the values were obtained:
[1] = molecular target: Dihydrofolate reductase (Homo sapiens) (UniProt P00374); assay: Inhibitory concentration against dihydrofolate reductace enzyme of humans
[2] = molecular target: T1, Dihydrofolate reductase (Homo sapiens, UniProt P00374); assay: Inhibitory concentration against dihydrofolate reductase of rat liver
T1 sequence (P00374 whole entry): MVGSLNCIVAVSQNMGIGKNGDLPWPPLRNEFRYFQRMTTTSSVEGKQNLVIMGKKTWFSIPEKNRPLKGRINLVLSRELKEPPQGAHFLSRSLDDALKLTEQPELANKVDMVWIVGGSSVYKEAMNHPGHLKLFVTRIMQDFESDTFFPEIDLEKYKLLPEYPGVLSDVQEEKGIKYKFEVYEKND

Cc1ccc(Cl)cc1Cc1cnc2nc(N)nc(N)c2c1C [6-(5-Chloro-2-methyl-benzyl)-5-methyl-pyrido[2,3-d]pyrimidine-2,4-diamine]
pIC50 [1]: 8.55

COc1cc(Cc2cnc3nc(N)nc(N)c3c2C)cc(OC)c1 [6-(3,5-Dimethoxy-benzyl)-5-methyl-pyrido[2,3-d]pyrimidine-2,4-diamine]
pIC50 [2]: 8.82
